# According to patent US20100056606A1, “Combination therapy using budesonide and antisense oligonucleotide targeted to IL4-receptor alpha” (ISIS Pharmaceuticals, Inc., priority 2005, published 2010):
# Tests used:
# [1] = mouse, in vivo
# OVA sensitized mice = assay: Ovalbumin induced allergic inflammation, acute model (AHR/Penh, BAL eosinophils); type: in vivo, mouse; conditions: for % Eosinophils (BAL) / Penh (100 mg/mL methacholine): day 28
# Method: In the mouse model of allergic inflammation, mice are sensitized and challenged with aerosolized chicken ovalbumin (OVA). Airway responsiveness is assessed by inducing airflow obstruction using a noninvasive method whereby unrestrained conscious OVA sensitized mice are placed into the main chamber of a plethysmograph (Buxco Electronics, Inc. Troy, N.Y.) and challenged with aerosolized methacholine. Pressure difference between this chamber and a reference chamber is used to extrapolate minute volume, breathing frequency and enhanced pause (Penh). Penh is a dimensionless parameter that is a function of total pulmonary airflow (i.e. the sum of the airflow in the upper and lower respiratory tracts) during the respiratory cycle of a mouse and is […] when airflow is greater. This parameter closely correlates with lung resistance as measured by traditional, invasive techniques using ventilated animals (Hamelmann et al., 1997, Am. J. Respir. Crit. Care Med. 156:766-775).
# The mouse model of allergic inflammation was used to test the efficacy of an inhaled antisense oligonucleotide targeted to mouse IL-4R alpha. A mismatched IL-4R alpha oligonucleotide (mismatch control oligonucleotide) was used as a negative control. Male Balb/c mice 8-10 weeks old (Charles River Laboratory, Taconic Farms, N.Y.) were maintained in micro-isolator cages housed in a specific pathogen free (SPF) facility. The sentinel cages within the animal colony surveyed negative for viral antibodies and the presence of known mouse pathogens.
# For the acute model of allergic inflammation, mice were sensitized with 20 μg of alum-precipitated OVA was injected intraperitoneally on days 0 and 14. On days 24, 25 and 26, animals were exposed for 20 minutes to 1% OVA (in saline) by ultrasonic nebulization. On days 17, 19, 21, 24 and 26 animals were dosed with vehicle alone (saline), 1 μg/kg or 10 μg/kg of ISIS 231894 or the mismatch control oligonucleotide. Oligonucleotides or vehicle were suspended in 0.9% sodium chloride and delivered via inhalation using a nose-only aerosol delivery exposure system. A Lovelace nebulizer set at a flow rate of 1.4 liter per minute feeding into a total flow rate of 10 liters per minute was used to deliver the oligonucleotide. The exposure chamber was equilibrated with an oligonucleotide aerosol solution for 5 minutes before mice were placed in a restraint tube attached to the chamber. Restrained mice were treated for a total of 10 minutes. Analysis was performed on day 28.
# Dendritic cells, eosinophils, macrophages and epithelial cells recovered from collagenase digested lung were analyzed for expression of IL-4R alpha protein by flow cytometry. […] A second experiment, in which mice were dosed with 10 μg/kg ISIS 231894, confirmed the efficacy of ISIS 231894 to decrease AHR and eosinophilia in the acute model.
# mouse IL-4R alpha RNA = assay: Antisense inhibition of mouse IL-4R alpha mRNA in b.END cells, real-time PCR; type: cell-based; conditions: 24 hours
# Method: The mouse brain endothelial cell line b.END was obtained from Dr. Werner Risau at the Max Plank Institute (Bad Nauheim, Germany). b.END cells were routinely cultured in DMEM, high glucose (Invitrogen Life Technologies, Carlsbad, Calif.) supplemented with 10% fetal bovine serum (Invitrogen Life Technologies, Carlsbad, Calif.). Cells were routinely passaged by trypsinization and dilution when they reached approximately 90% confluence. Cells were seeded into 96-well plates (Falcon-Primaria #353872, BD Biosciences, Bedford, Mass.) at a density of approximately 3000 cells/well for use in oligomeric compound transfection experiments.
# When cells reach appropriate confluency, they are treated with oligonucleotide using Lipofectin™ as described. When cells reached 65-75% confluency, they were treated with oligonucleotide. Oligonucleotide was mixed with LIPOFECTIN™ Invitrogen Life Technologies, Carlsbad, Calif.) in Opti-MEM™-1 reduced serum medium (Invitrogen Life Technologies, Carlsbad, Calif.) to achieve the desired concentration of oligonucleotide and a LIPOFECTIN™ concentration of 2.5 or 3 […] oligonucleotide. This transfection mixture was incubated at room temperature for approximately 0.5 hours. For cells grown in 96-well plates, wells were washed once with 100 μL OPTI-MEM™-1 and then treated with 130 μL of the transfection mixture. Cells grown in 24-well plates or other standard tissue culture plates are treated similarly, using appropriate volumes of medium and oligonucleotide. Cells are treated and data are obtained in duplicate or triplicate. After approximately 4-7 hours of treatment at 37° C., the medium containing the transfection mixture was replaced with fresh culture medium. Cells were harvested 16-24 hours after oligonucleotide treatment.
# Quantitation of IL-4R alpha mRNA levels was accomplished by real-time quantitative PCR using the ABI PRISM™ 7600, 7700, or 7900 Sequence Detection System (PE-Applied Biosystems, Foster City, Calif.) according to manufacturer's instructions.
# Prior to quantitative PCR analysis, primer-probe sets specific to the target gene being measured were evaluated for their ability to be “multiplexed” with a GAPDH amplification reaction. After isolation the RNA is subjected to sequential reverse transcriptase (RT) reaction and real-time PCR, both of which are performed in the same well. RT and PCR reagents were obtained from Invitrogen Life Technologies (Carlsbad, Calif.). […] The RT reaction was carried out by incubation for 30 minutes at 48° C. Following a 10 minute incubation at 95° C. to activate the PLATINUM® Taq, 40 cycles of a two-step PCR protocol were carried out: 95° C. for 15 seconds (denaturation) followed by 60° C. for 1.5 minutes (annealing/extension).
# Gene target quantities obtained by RT, real-time PCR were normalized using either the expression level of GAPDH, a gene whose expression is constant, or by quantifying total RNA using RiboGreen™ (Molecular Probes, Inc. Eugene, Oreg.). GAPDH expression was quantified by RT, real-time PCR, by being run simultaneously with the target, multiplexing, or separately. Total RNA was quantified using RiboGreen™ RNA quantification reagent (Molecular Probes, Inc. Eugene, Oreg.).
# Probes and primers for use in real-time PCR were designed to hybridize to target-specific sequences. The target-specific PCR probes have FAM covalently linked to the 5′ end and TAMRA or MGB covalently linked to the 3′ end, where FAM is the fluorescent dye and TAMRA or MGB is the quencher dye.
# A series of oligomeric compounds was designed to target different regions of mouse IL-4R alpha RNA, using SEQ ID NO: 5. All compounds are chimeric oligonucleotides (“gapmers”) 20 nucleotides in length, composed of a central “gap” region consisting of ten 2′-deoxynucleotides, which is flanked on both sides (5′ and 3′) by five-nucleotide “wings”. The wings are composed of 2′-O-(2-methoxyethyl) nucleotides, also known as 2′-MOE nucleotides. […]
substance,measurement,setting,value
"ISIS 231894: lead antisense oligonucleotide targeted to mouse IL-4R alpha; CCGCTGTTCTCAGGTGACAT; SEQ ID NO: 24; 2'-MOE gapmer, phosphorothioate (all phosphorothioate, sugars by position and methylation of C not given here; 2'-MOE gapmer)",half life in the lung,[1],48 to 96 h
same,"eosinophil infiltration in BAL fluid, in words",OVA sensitized mice,significant decrease
same,"pulmonary function: lung resistance and compliance, in words",OVA sensitized mice,Significant improvement
same,% Eosinophils (BAL),OVA sensitized mice; 1 μg/kg inhaled,35%
same,Penh (100 mg/mL methacholine),OVA sensitized mice; 1 μg/kg inhaled,6
same,% Eosinophils (BAL),OVA sensitized mice; 10 μg/kg inhaled,35%
same,Penh (100 mg/mL methacholine),OVA sensitized mice; 10 μg/kg inhaled,4.5
same,"methacholine-induced AHR (Penh, whole body plethysmography), in words",OVA sensitized mice; 1 and 10 μg/kg inhaled,"significant, dose dependent suppression"
same,IL-4R alpha mRNA,mouse IL-4R alpha RNA; 1 nM,100 % of untreated control
same,IL-4R alpha mRNA,mouse IL-4R alpha RNA; 5 nM,55 % of untreated control
same,IL-4R alpha mRNA,mouse IL-4R alpha RNA; 10 nM,41 % of untreated control
same,IL-4R alpha mRNA,mouse IL-4R alpha RNA; 25 nM,35 % of untreated control
same,IL-4R alpha mRNA,mouse IL-4R alpha RNA; 50 nM,20 % of untreated control
same,IL-4R alpha mRNA,mouse IL-4R alpha RNA; 100 nM,20 % of untreated control
same,mouse IL-4R alpha mRNA reduction (in words),mouse IL-4R alpha RNA; compared to mismatch control,dose-dependent mouse IL-4R alpha mRNA reduction
